The source of these data is patent publication US20120157421A1, “17Beta-Alkyl-17Alpha-oxy-estratrienes” (BAYER PHARMA AKTIENGESELLSCHAFT, priority 2009, published 2012).

Data set [1] is described as follows: metabolic stability in human liver microsomes. The note with it: estimated maximum oral bioavailability from human liver microsome incubation; 0.3 μM, 0.5 mg/ml protein, 37° C., 60 min. It counts as in vitro ADME. Here is the method:
The metabolic stability of test substances was determined by incubations in a suspension with human liver microsomes adjusted to a protein content of 0.5 mg/ml, at a concentration of 0.3 μM. The incubation volume was 3.03 ml, where 2.4 ml of a microsome suspension in phosphate buffer at pH 7.4 (sodium phosphate buffer 100 mM (NaH2PO4×H2O+Na2HPO4×2H2O) were initially charged, which were activated by addition of 0.6 ml of a cofactor mix (consisting of 1.2 mg of NADP, 3 IU of glucose 6-phosphate dehydrogenase, 14.6 mg of glucose 6-phosphate and 4.9 mg of MgCl2 in phosphate buffer, pH 7.4). The assay was started by addition of 30 μL of a test substance stock solution, where the composition of the stock solution was such that the solvent concentrations during the incubation were <0.2% for DMSO and <1% for methanol. The incubations were carried out at an incubation temperature of 37° C. over a period of 60 minutes, during which time the microsomes were kept in a homogeneous suspension by continuous stirring (Tec Control Shaker RS 485 at 300 rpm). At 6 different points in time (2, 8, 16, 30, 45 & 60 min), aliquots of in each case 250 μl were removed and immediately added to the same volume of ice-cold methanol and covered.
The decrease in concentrations over time were used to determine the half-life of the test substance in the microsomal incubation mixture described above, which in turn was used to calculate the “intrinsic clearance”, the maximum liver microsome rate for the metabolic elimination of the test substance. This “intrinsic clearance” for its part can be used together with various physiological parameters to estimate the maximum metabolic clearance in man, where the principle mentioned above is only capable of representing phase I metabolic reactions (typically: oxidoreductive reactions of Zytochrom P450 enzymes or flavin monooxigenase, and also hydrolytic reactions of esterases and amidases). Physiological parameters are: human liver blood flow: 1.3 l/kg/h; specific liver weight (per kg of body weight): 21 g/kg; microsomal protein content: 40 mg/g of liver. Furthermore, assuming that (i) the resorption of the test substance in humans is 100%, and (ii) the estimated metabolic clearance can be calculated as first pass, a maximum oral bioavailability (Fmax) was estimated.
Formulae & brief illustrations: CL intrinsic-apparent [in ml/(min*mg of protein)]: reflects the elimination constant kel (in min-1) of the test substance in the incubation mixture, divided by the microsomal protein content ([…]). CL intrinsic [in l(h*kg)]: maximum capability of the liver (microsomes) for metabolic elimination of the test substance, unless the liver blood flow is the limiting factor (kel*liver weight)/liver proportion (microsomal content) in the incubation. CL blood-well stirred [in l/(h*kg)]: estimated blood clearance (via Phase 1 metabolism): (QH*CL intrinsic)/(QH+CL intrinsic). Fmax [in %]: maximum bioavailability after oral administration of the test substance: (1-CL blood-well stirred/QH)*100.

Data set [2] deals with uterus growth in rats with simultaneous administration of oestradiol benzoate (EB). Description: uterus growth test in infant rats, p.o. (test for antioestrogen action). It counts as in vivo, rat. The conditions noted are these: inhibition of uterus growth relative to EB control; infant female rats; 0.5 μg EB/0.1 ml s.c. plus test compound p.o. in the range of 0.03 mg/kg body weight, once daily for three days. How it is done: To examine the efficacy of the compounds according to the invention, in vivo tests with infant rats were carried out. To this end, the growth of the uterus with peroral administration (p.o.) of the pharmaceutical was examined (test for antioestrogen action).
The principle of this method is to investigate the effect of an administration of compounds having antioestrogen action with simultaneous administration of oestrogens. In rodents, the administration of oestrogens results in an increased weight of the uterus (both by proliferation and by hydropexia). This growth can be inhibited in a dosage-related manner by simultaneous administration of compounds with antioestrogen action.
For the tests, infant female rats having a weight of 35-45 g were examined at the start of the experiment. Five to six animals per dose were tested. For the p.o. administration, the substances were dissolved in one part of ethanol (E) and made up with nine parts of peanut oil (PO). For acclimatization, the young rats just dropped by the mothers were delivered one day before the start of the treatment and immediately supplied with food—right in the cage. For three days, the animals were then treated in combination with 0.5 μg of oestradiol benzoate (EB) once per day. EB was always administrated subcutaneously (s.c.), whereas the test substance was administered p.o. 24 hours after the last administration, the animals were weighed and killed, and the uteri were removed. The moist weights (less contents) of the prepared uteri were determined. The following control studies were carried out: for a negative control, 0.2 ml of an E/PO mixture was administered per animal and day. […]
For each group, the means with standard deviation (X±SD) and the significance of the differences to the control group (EB) of the relative organ weights (mg/100 g of body weight) were determined in the Dunnett test (p<0.05). The inhibition (in %) relative to the EB control was determined using a calculation programme. The relative efficacy of the test substances was calculated by covariance and regression analysis.

Take `C[C@]12C[C@H](F)C3c4ccc(O)cc4CC(CCCCCN4CCC[C@H]4CCCCCCC(F)(F)C(F)(F)F)[C@H]3C1CC[C@@]2(C)O` (stereo partly drawn) [Example 2, 11β-Fluoro-17β-methyl-7α-[5-[(2R)-2-(7,7,8,8,8-pentafluorooctyl)-1-pyrrolidinyl]pentyl]-oestra-1,3,5(10)-triene-3,17α-diol]: the “Fmax (micros.) [%]” value in data set [1] is on record as 36%. Moreover, the “Inhibition [%]” value in data set [2] was determined as 70%.

For the compound `C[C@]1(O)CCC2[C@@H]3C(CCCCCN4CCC[C@H]4CCCCCCC(F)(F)C(F)(F)F)Cc4cc(O)ccc4C3[C@@H](F)C[C@@]21C` (stereo partly drawn) [Example C2, 11β-Fluoro-17α-methyl-7α-[5-[(2R)-2-(7,7,8,8,8-pentafluorooctyl)-1-pyrrolidinyl]pentyl]-oestra-1,3,5(10)-triene-3,17β-diol, reference compound], the “Fmax (micros.) [%]” value in data set [1] is recorded as 9%.

Turning to `CN(CCCCCCCC(F)(F)C(F)(F)F)CCCCCC1Cc2cc(O)ccc2C2[C@@H]1C1CC[C@@](C)(O)[C@@]1(C)C[C@@H]2F` (stereo partly drawn) [Example 1, [5-(11β-Fluoro-3,17α-dihydroxy-17β-methyloestra-1,3,5(10)-trien-7α-yl)pentyl](methyl)(8,8,9,9,9-pentafluorononyl)amine], in data set [1], the “Fmax (micros.) [%]” value is 39%. Besides, in data set [2], the “Inhibition [%]” value is 42-59%.

Regarding `C[C@]12C[C@H](F)C3c4ccc(O)c(Cl)c4CC(CCCCCN4CCC[C@H]4CCCCCC(F)(F)C(F)(F)F)[C@H]3C1CC[C@@]2(C)O` (stereo partly drawn) [Example 9, 4-Chloro-11β-fluoro-17β-methyl-7α-[5-[(2R)-2-(6,6,7,7,7-pentafluoroheptyl)-1-pyrrolidinyl]pentyl]oestra-1,3,5(10)-triene-3,17α-diol], the “Fmax (micros.) [%]” value in data set [1] was 42%.

With `C[C@]12C[C@H](F)C3c4ccc(O)c(Br)c4CC(CCCCCN4CCC[C@H]4CCCCCC(F)(F)C(F)(F)F)[C@H]3C1CC[C@@]2(C)O` (stereo partly drawn) [Example 8, 4-Bromo-11β-fluoro-17β-methyl-7α-[5-[(2R)-2-(6,6,7,7,7-pentafluoroheptyl)-1-pyrrolidinyl]pentyl]oestra-1,3,5(10)-triene-3,17α-diol], in data set [1], the “Fmax (micros.) [%]” value is given as 48%.

`CN(CCCCCCCC(F)(F)C(F)(F)F)CCCCCC1Cc2cc(O)ccc2C2[C@@H]1C1CC[C@](C)(O)[C@@]1(C)C[C@@H]2F` (stereo partly drawn) [Example C1, 11β-Fluoro-17α-methyl-7α-[5-[methyl(8,8,9,9,9-pentafluorononyl)amino]pentyl]oestra-1,3,5(10)-triene-3,17β-diol, reference compound]: the “Fmax (micros.) [%]” value in data set [1] is 9%.

Turning to `C[C@]1(O)CCC2[C@@H]3C(CCCCCN4CCC[C@H]4CCCCCC(F)(F)C(F)(F)F)Cc4cc(O)ccc4C3[C@@H](F)C[C@@]21C` (stereo partly drawn) [Example C3, 11β-Fluoro-17α-methyl-7α-[5-[(2R)-2-(6,6,7,7,7-pentafluoroheptyl)-1-pyrrolidinyl]pentyl]oestra-1,3,5(10)-triene-3,17β-diol, reference compound], the “Fmax (micros.) [%]” value in data set [1] is on record as 8%.

As for `C[C@]12C[C@H](F)C3c4ccc(O)c(Br)c4CC(CCCCCN4CCC[C@H]4CCCCCCC(F)(F)C(F)(F)F)[C@H]3C1CC[C@@]2(C)O` (stereo partly drawn) [Example 6, 4-Bromo-11β-fluoro-17β-methyl-7α-[5-[(2R)-2-(7,7,8,8,8-pentafluorooctyl)-1-pyrrolidinyl]pentyl]oestra-1,3,5(10)-triene-3,17α-diol], the “Fmax (micros.) [%]” value in data set [1] is 34%.

As to `C[C@]12C[C@H](F)C3c4ccc(O)cc4CC(CCCCCN4CCC[C@H]4CCCCCC(F)(F)C(F)(F)F)[C@H]3C1CC[C@@]2(C)O` (stereo partly drawn) [Example 3, 11β-Fluoro-17β-methyl-7α-[5-[(2R)-2-(6,6,7,7,7-pentafluoroheptyl)-1-pyrrolidinyl]pentyl]oestra-1,3,5(10)-triene-3,17α-diol], the “Fmax (micros.) [%]” value in data set [1] was 40%. For the same compound, the “Inhibition [%]” value in data set [2] worked out at 40%.

On to `C[C@]12C[C@H](F)C3c4ccc(O)c(Cl)c4CC(CCCCCN4CCC[C@H]4CCCCCCC(F)(F)C(F)(F)F)[C@H]3C1CC[C@@]2(C)O` (stereo partly drawn) [Example 7, 4-Chloro-11β-fluoro-17β-methyl-7α-[5-[(2R)-2-(7,7,8,8,8-pentafluorooctyl)-1-pyrrolidinyl]pentyl]oestra-1,3,5(10)-triene-3,17α-diol], for which the “Fmax (micros.) [%]” value in data set [1] is given as 47%.

For `C[C@]12C[C@H](F)C3c4cc(Cl)c(O)c(Cl)c4CC(CCCCCN4CCC[C@H]4CCCCCCC(F)(F)C(F)(F)F)[C@H]3C1CC[C@@]2(C)O` (stereo partly drawn) [Example 10, 2,4-Dichloro-11β-fluoro-17β-methyl-7α-[5-[(2R)-2-(7,7,8,8,8-pentafluorooctyl)-1-pyrrolidinyl]pentyl]oestra-1,3,5(10)-triene-3,17α-diol], the “Fmax (micros.) [%]” value in data set [1] is given as 34%.

Turning to `CN(CCCCCCCC(F)(F)C(F)(F)F)CCCCCC1Cc2c(ccc(O)c2Cl)C2[C@@H]1C1CC[C@@](C)(O)[C@@]1(C)C[C@@H]2F` (stereo partly drawn) [Example 4, 4-Chloro-11β-fluoro-17β-methyl-7α-[5-[methyl(8,8,9,9,9-pentafluorononyl)amino]pentyl]-oestra-1,3,5(10)-triene-3,17α-diol], the “Fmax (micros.) [%]” value in data set [1] is 39%.

As for `CN(CCCCCCCC(F)(F)C(F)(F)F)CCCCCC1Cc2c(ccc(O)c2Br)C2[C@@H]1C1CC[C@@](C)(O)[C@@]1(C)C[C@@H]2F` (stereo partly drawn) [Example 5, 4-Bromo-11β-fluoro-17β-methyl-7α-[5-[methyl(8,8,9,9,9-pentafluorononyl)amino]pentyl]oestra-1,3,5(10)-triene-3,17α-diol], the “Fmax (micros.) [%]” value in data set [1] is reported as 55%.
